In US10654828B2 (NOVARTIS AG, priority 2017, dated 2020):
Like-named read-outs stand apart in the source and are kept apart here.

How the values were obtained:
FoxO3a = FoxO3a inhibition: GFP-FoxO3a nuclear to cytoplasmic translocation reporter assay; format: cell-based; conditions: U2OS GFP-FoxO3a H212R cells, serum starved overnight, compound 30 minutes, ratio of nuclear to cytosolic GFP intensity, DMSO control 0%, read-out: FoxO AC50
Summary of the method: (§1)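 Serum-starved U2OS cells expressing GFP-FoxO3a H212R treated with compounds 30 min, fixed, imaged. FoxO3a: nuclear/cytosolic GFP ratio, %. AKT: total cellular phospho-AKT (Ser473) antibody staining intensity, %. DMSO set as 0% activity.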

AKT = AKT activation: Phospho-AKT (Ser473) antibody staining in reporter cells; format: cell-based; conditions: U2OS GFP-FoxO3a H212R cells, serum starved overnight, compound 30 minutes, total cellular intensity of Phospho-AKT (Ser473) staining, DMSO control 0%
Summary of the method: as §1

Row | SMILES | AC50 (FoxO3a; Homo sapiens, U2OS, 0.5 h) | AC50 (AKT; Homo sapiens, U2OS, 0.5 h) | AC50 (FoxO3a) | AC50 (AKT)
1 | COc1ncc(-c2ccc(Cn3ccc4cc(-n5nc(C(N)=O)cc5C)ccc43)cc2)cn1 [Example 1-28, 1-(1-(4-(2-methoxypyrimidin-5-yl)benzyl)-1H-indol-5-yl)-5-methyl-1H-pyrazole-3-carboxamide] | 223 nM | 1170 nM | – | –
2 | Cc1cc(C(N)=O)nn1-c1ccc2c(ccn2Cc2ccc(C3=C[C@H]4CN(C)C[C@H]4C3)cc2)c1 (racemic) [Example 25, (cis)-5-methyl-1-(1-(4-(2-methyl-1,2,3,3a,4,6a-hexahydrocyclopenta[c]pyrrol-5-yl)benzyl)-1H-indol-5-yl)-1H-pyrazole-3-carboxamide] | 215 nM | 1120 nM | – | –
3 | Cc1cc(C(N)=O)nn1-c1ccc2c(ccn2Cc2ccc(C3=CCN4CCCC3C4)cc2)c1 (single isomer, unassigned) [Example 13, 1-(1-(4-(1-azabicyclo[3.3.1]non-3-en-4-yl)benzyl)-1H-indol-5-yl)-5-methyl-1H-pyrazole-3-carboxamide] | 437 nM | 1530 nM | – | –
4 | Cc1cc(C(N)=O)nn1-c1ccc2c(ccn2Cc2ccc(-c3cnn(C)c3)cc2)c1 [Example 1-19, 5-methyl-1-(1-(4-(1-methyl-1H-pyrazol-4-yl)benzyl)-1H-indol-5-yl)-1H-pyrazole-3-carboxamide] | 140 nM | 500 nM | – | –
5 | COc1ccc(-c2ccc(Cn3ccc4cc(-n5nc(C(N)=O)cc5C)ccc43)cc2)cc1 [Example 1-30, 1-(1-((4′-methoxy-[1,1′-biphenyl]-4-yl)methyl)-1H-indol-5-yl)-5-methyl-1H-pyrazole-3-carboxamide] | 216 nM | 952 nM | – | –
6 | Cc1cc(C(N)=O)nn1-c1ccc2c(ccn2Cc2ccc(C3CCN(C)CC3)cc2)c1 [Example 2-5, 5-methyl-1-(1-(4-(1-methylpiperidin-4-yl)benzyl)-1H-indol-5-yl)-1H-pyrazole-3-carboxamide] | 281 nM | 760 nM | – | –
7 | Cc1cc(C(N)=O)nn1-c1ccc2c(ccn2Cc2ccc(-c3ccc(S(C)(=O)=O)nc3)cc2)c1 [Example 30-1, 5-methyl-1-(1-(4-(6-(methylsulfonyl)pyridin-3-yl)benzyl)-1H-indol-5-yl)-1H-pyrazole-3-carboxamide] | 124 nM | 633 nM | – | –
8 | Cc1cc(C(N)=O)nn1-c1ccc2c(ccn2Cc2ccc(-c3ccc(CN4CCC[C@@H]4CO)cc3)cc2)c1 [Example 34-2, (R)-1-(1-((4′-((2-(hydroxymethyl)pyrrolidin-1-yl)methyl)-[1,1′-biphenyl]-4-yl)methyl)-1H-indol-5-yl)-5-methyl-1H-pyrazole-3-carboxamide] | 42 nM | 3 nM | – | –
9 | Cc1cc(C(N)=O)nn1-c1ccc2c(ccn2Cc2ccc([C@@H]3C[C@@H]4CN(CC5CC5)C[C@@H]4C3)cc2)c1 [Example 40, 1-(1-(4-((3aR,5r,6aS)-2-(cyclopropylmethyl)octahydrocyclopenta[c]pyrrol-5-yl)benzyl)-1H-indol-5-yl)-5-methyl-1H-pyrazole-3-carboxamide] | 161 nM | 1220 nM | – | –
10 | Cc1cc(C(N)=O)nn1-c1ccc2c(ccn2Cc2ccc(-c3ccc(CN4CCC[C@H]4CO)cc3)cc2)c1 [Example 34-1, (S)-1-(1-((4′-((2-(hydroxymethyl)pyrrolidin-1-yl)methyl)-[1,1′-biphenyl]-4-yl)methyl)-1H-indol-5-yl)-5-methyl-1H-pyrazole-3-carboxamide] | 119 nM | 184 nM | – | –
11 | Cc1cc(C(N)=O)nn1-c1ccc2c(ccn2Cc2ccc(C3=CCN(C(=O)CCCN(C)C)CC3)cc2)c1 [Example 10] | 189 nM | 512 nM | – | –
12 | Cc1cc(C(N)=O)nn1-c1ccc2c(ccn2Cc2ccc([C@@]34C[C@@H]3CN(C)C4)cc2)c1 [Example 33, 5-methyl-1-(1-(4-((1R,5S)-3-methyl-3-azabicyclo[3.1.0]hexan-1-yl)benzyl)-1H-indol-5-yl)-1H-pyrazole-3-carboxamide] | 383 nM | 2810 nM | – | –
13 | Cc1cc(C(N)=O)nn1-c1ccc2c(ccn2Cc2ccc(-c3ccc(C(=O)N4CCN(C)CC4)cc3)cc2)c1 [Example 36, 5-methyl-1-(1-((4′-(4-methylpiperazine-1-carbonyl)-[1,1′-biphenyl]-4-yl)methyl)-1H-indol-5-yl)-1H-pyrazole-3-carboxamide] | 49 nM | 39 nM | – | –
14 | Cc1cc(C(N)=O)nn1-c1ccc2c(ccn2Cc2ccc(C3CCN(C)C3)cc2)c1 (racemic) [Example 2-1, rac-5-methyl-1-(1-(4-(1-methylpyrrolidin-3-yl)benzyl)-1H-indol-5-yl)-1H-pyrazole-3-carboxamide] | 733 nM | 2510 nM | – | –
15 | Cc1cc(C(N)=O)nn1-c1ccc2c(ccn2Cc2ccc(C#CCN(C)C)cc2)c1 [Example 12, 1-(1-(4-(3-(dimethylamino)prop-1-yn-1-yl)benzyl)-1H-indol-5-yl)-5-methyl-1H-pyrazole-3-carboxamide] | 402 nM | 1190 nM | – | –
16 | Cc1cc(C(N)=O)nn1-c1ccc2c(ccn2Cc2ccc(-c3ccc(CN4CCNCC4)cc3)cc2)c1 [Example 35, 5-methyl-1-(1-((4′-(piperazin-1-ylmethyl)-[1,1′-biphenyl]-4-yl)methyl)-1H-indol-5-yl)-1H-pyrazole-3-carboxamide] | 181 nM | 603 nM | – | –
17 | Cc1cc(C(N)=O)nn1-c1ccc2c(ccn2Cc2ccc(-c3ccc4[nH]ncc4c3)cc2)c1 [Example 1-17, 1-(1-(4-(1H-indazol-5-yl)benzyl)-1H-indol-5-yl)-5-methyl-1H-pyrazole-3-carboxamide] | 88 nM | 199 nM | – | –
18 | Cc1cc(C(N)=O)nn1-c1ccc2c(ccn2Cc2ccc(-c3ccc(S(=O)(=O)N4CCN(C)CC4)cc3)cc2)c1 [Example 1-11, 5-methyl-1-(1-((4′-((4-methylpiperazin-1-yl)sulfonyl)-[1,1′-biphenyl]-4-yl)methyl)-1H-indol-5-yl)-1H-pyrazole-3-carboxamide] | 69 nM | 388 nM | – | –
19 | Cc1cc(C(N)=O)nn1-c1ccc2c(ccn2Cc2ccc(C3CCN(C)CC3(C)C)cc2)c1 (single isomer, unassigned) [Example 16-2, 5-methyl-1-(1-(4-(1,3,3-trimethylpiperidin-4-yl)benzyl)-1H-indol-5-yl)-1H-pyrazole-3-carboxamide] | – | – | 161 nM | 1220 nM
20 | Cc1cc(C(N)=O)nn1-c1ccc2c(ccn2Cc2ccc(C3=CCN(C)CC3)cc2)c1 [Example 1-1, 5-methyl-1-(1-(4-(1-methyl-1,2,3,6-tetrahydropyridin-4-yl)benzyl)-1H-indol-5-yl)-1H-pyrazole-3-carboxamide] | 53 nM | 138 nM | – | –
21 | Cc1cc(C(N)=O)nn1-c1ccc2c(ccn2Cc2ccc(-c3cccc(C(=O)N4CCN(C)CC4)c3)cc2)c1 [Example 1-12, 5-methyl-1-(1-((3′-(4-methylpiperazine-1-carbonyl)-[1,1′-biphenyl]-4-yl)methyl)-1H-indol-5-yl)-1H-pyrazole-3-carboxamide] | 124 nM | 346 nM | – | –
22 | Cc1cc(C(N)=O)nn1-c1ccc2c(ccn2Cc2ccc(N3CCN(C)CC3)cc2)c1 [Example 11-2, 5-methyl-1-(1-(4-(4-methylpiperazin-1-yl)benzyl)-1H-indol-5-yl)-1H-pyrazole-3-carboxamide] | 341 nM | 1060 nM | – | –
23 | Cc1cc(C(N)=O)nn1-c1ccc2c(ccn2Cc2ccc(-c3ccc(S(C)(=O)=O)cc3)cc2)c1 [Example 1-6, 5-methyl-1-(1-((4′-(methylsulfonyl)-[1,1′-biphenyl]-4-yl)methyl)-1H-indol-5-yl)-1H-pyrazole-3-carboxamide] | 101 nM | 250 nM | – | –
24 | Cc1cc(C(N)=O)nn1-c1ccc2c(ccn2Cc2ccc(-c3ccc(F)cc3)cc2)c1 [Example 1-27, 1-(1-((4′-fluoro-[1,1′-biphenyl]-4-yl)methyl)-1H-indol-5-yl)-5-methyl-1H-pyrazole-3-carboxamide] | 229 nM | > 10000 nM | – | –
25 | Cc1cc(C(N)=O)nn1-c1ccc2c(ccn2Cc2ccc(C3=CCOCC3)cc2)c1 [Example 1-3, 1-(1-(4-(3,6-dihydro-2H-pyran-4-yl)benzyl)-1H-indol-5-yl)-5-methyl-1H-pyrazole-3-carboxamide] | 201 nM | > 10000 nM | – | –
26 | Cc1cc(C(N)=O)nn1-c1ccc2c(c1)c(C1=CCN(C)CC1)cn2Cc1ccc(-c2ccc(S(C)(=O)=O)cc2)cc1 [Example 19-2, 5-methyl-1-(3-(1-methyl-1,2,3,6-tetrahydropyridin-4-yl)-1-((4′-(methylsulfonyl)-[1,1′-biphenyl]-4-yl)methyl)-1H-indol-5-yl)-1H-pyrazole-3-carboxamide] | 346 nM | 1020 nM | – | –
27 | Cc1cc(C(N)=O)nn1-c1ccc2c(ccn2Cc2ccc(-c3ccc(CN)cc3)cc2)c1 [Example 1-34, 1-(1-((4′-(aminomethyl)-[1,1′-biphenyl]-4-yl)methyl)-1H-indol-5-yl)-5-methyl-1H-pyrazole-3-carboxamide] | 248 nM | 743 nM | – | –
28 | Cc1cc(C(N)=O)nn1-c1ccc2c(ccn2Cc2ccc(C3=C[C@H]4CNC[C@H]4C3)cc2)c1 (racemic) [Example 24, (cis)-1-(1-(4-(1,2,3,3a,4,6a-hexahydrocyclopenta[c]pyrrol-5-yl)benzyl)-1H-indol-5-yl)-5-methyl-1H-pyrazole-3-carboxamide] | 381 nM | 1200 nM | – | –
29 | Cc1cc(C(N)=O)nn1-c1ccc2c(ccn2Cc2ccc(-c3ccc4cn(C)nc4c3)cc2)c1 [Example 1-10, 5-methyl-1-(1-(4-(2-methyl-2H-indazol-6-yl)benzyl)-1H-indol-5-yl)-1H-pyrazole-3-carboxamide] | 72 nM | 234 nM | – | –
